In patent US20260191933A1, “PHARMACEUTICAL COMBINATIONS AND USES THEREOF” (The University of Melbourne, priority 2022, published 2026):

What was measured:
[1] = system: 12-week obese AgRP-Cas9 mice; experiment: I.C.V. fluorosamine in obese AgRP-Cas9 mice given AAV-gScrambled or AAV-gIR; type: in vivo
Method: To disassemble the CSPG-ECM within the ARC, mice received bilaterally (unless stated otherwise) administration of 15 mU/side of active chABC (C3667, Sigma, St. Louis, […], dissolved in 1 M trehalose) or heat-inactivated chABC protein as a vehicle (chABC in 1 M trehalose was heat-inactivated at 85° C. for 45 mins, as described previously by Alonge et al., 2020) in a total volume of 150 nl/side. To pulse the CSPG-ECM within the ARC or RSG, mice received bilateral (unless stated otherwise) administration of biotinylated WFA (0.3 μg/side, in a volume of 150 nl). To disrupt IR in AgRP neurons, 12-week HFHS fed AgRP-Cas9 mice were stereotaxically injected with AAVs expressing U6-driven guide RNA's targeting the InsR gene or a scrambled sequence (5′ GTGTAGTTCGACCATTCGTG ′3 (SEQ ID NO: 14)) alongside a CAG driven mCherry FLEX switch. Unless otherwise stated injections were bilaterally into the ARC (coordinates, bregma: anterior-posterior, −1.70 mm; dorsal-ventral, −5.85 mm; lateral, +/−0.18 mm, 200 nl/side) or into the RSG (coordinates, bregma: anterior-posterior, −1.40 mm; dorsal-ventral, −1.80 mm; lateral, +/−0.50 mm, 200 nl/side). WFA-biotin was injected unilaterally into the cc (coordinates, bregma: anterior-posterior, −1.40 mm; dorsal-ventral, −5.80 mm; lateral, +/−0.20 mm, 200 nl/side)
To generate AAV-gScrambled (pAAV-U6>mScramble-[…] (SEQ ID NO: 14))-CAG>LL:rev(mCherry):rev(LL):WPRE) and AAV-gIR (pAAV[-U6>mInsr[gRNA-[…] (SEQ ID NO: 15)]-U6>mInsr[gRNA-[…] (SEQ ID NO: 16)]-CAG>LL:rev(mCherry):rev(LL):WPRE) viral vectors, sgRNAs were first designed using online CRISPR tools (http://crispr.mit.edu and http://chopchop.cbu.uib.no/). […] For AAV-gScrambled a pUp-U6>Scramble gRNA vector was generated using the Gibson assembly of a pDONR P4-P1R backbone and primers 5′ […] ′3 (SEQ ID NO: 17) and 5′ […] ′3 (SEQ ID NO: 18). For AAV-gIR a pUp-U6>mInsr[gRNA-[…] (SEQ ID NO: 15)]-U6>mInsr[gRNA-[…] (SEQ ID NO: 16)] gRNA vector was generated using the Gibson assembly of a AarI digested pUp-U6-gRNA-AarI-Stuffer-AarI backbone and primers 5′ […] ′3 (SEQ ID NO: 19) and 5′ […] ′3 (SEQ ID NO: 20). For both AAV-gScrambled and AAV-gIR the p-Up vectors were cloned alongside pDown-CAG and pTail-LL:rev(mCherry):rev(LL) to generate the final vectors by LR reaction using the Gateway method. AAV vectors were packaged into the AAV-DJ/8 steotype at a titre of >2 10^13 GC/ml). All vector cloning and AAV packaging was carried out by VectorBuilder (Chicago, IL).
Under isoflurane anaesthetic 12-week HFHS fed C57BL/6J or AgRP-Cas9 mice were implanted stereotaxically with guide cannulas into the right lateral ventricle (0.2 mm posterior, 1.0 mm lateral from bregma). Guide cannula was positioned 1.3 mm above the injection site (1 mm ventral to the surface of the skull). AgRP-Cas9 mice were treated with either AAV-gScrambled or AAV-gIR and underwent guide cannula placement 7 days post AAV administration. Mice were administered I.C.V. vehicle (ddH2O), fluorosamine (100 μg/animal/day or 250 μgl/animal/day) in a volume of 2 μl/animal and all compounds were delivered approximately 1 h before lights off (7 pm).

diet-induced obese mice = experiment: I.C.V. PZ6005 and/or S.C. liraglutide, 28 days: body weight, adiposity, food intake, energy expenditure; type: in vivo, C57BL/6j mice
Method: Metabolic measurements were undertaken in the Melbourne Mouse Metabolic Phenotyping Platform (The University of Melbourne, Australia). Glucose tolerance tests were performed on 6 h fasted conscious mice respectively by injecting D-glucose (2 mg/g of lean body mass and 1 mg/g lean mass for db/db and HFHS+STZ mice) into the peritoneal cavity and measuring glucose in tail blood immediately before and at 15, 30, 45, 60, 90 and 120 min after injection using an Accu-Check glucometer (Roche, Germany). The areas under glucose excursion curves were determined and expressed as mmol/l×min. Fasted (12 h fast) plasma insulin or glucose levels were determined using a Rat/Mouse Insulin ELISA (EZRMI-13K, Merck Millipore, CA) or an Accu-Check glucometer respectively. The HOMA-IR was calculated using the equation [(glucose×insulin)/405]. Adiposity was measured using TD-NMR minispec (Bruker Optics Inc., Billerica, MA).
Mice were acclimated for 24 h and then monitored for 48 h in an environmentally controlled Promethion Metabolic Screening System (Sable Systems International, NV) fitted with indirect open circuit calorimetry, food consumption and activity monitors to measure activity, caloric intake and energy expenditure. Respiratory quotients were calculated as the ratio of CO2 production over O2 consumption respiratory exchange ratio and energy expenditure was calculated using the Weir equation (Kcal h−1=60×(0.003941×VO2+0.001106×VCO2). To account for difference in body mass/composition energy expenditure was analysed and adjusted using ANCOVA using scripts available at the National Mouse Metabolic Phenotyping Centers (MMPC, Nashville, TN, USA) Energy Expenditure Analysis Page (https://www.mmpc.org/shared/regression.aspx).

[2] = AAV-gScrambled AgRP-Cas9 mice, 100 μg/animal I.C.V. daily for 10 days

Structure (SMILES): CC(=O)NC1C(OC(C)=O)OC(COC(C)=O)[C@@H](F)C1OC(C)=O (stereo partly shown) [PZ6005, per-O-acetylated-4-F-N-acetylglucosamine]
- positive metabolic outcomes ([1]; AAV-IR AgRP-Cas9 mice): mitigated, at least in part
- adiposity [1, 2]: reduced adiposity
- body weight [1, 2]: promoted weight loss
- caloric intake [1, 2]: attenuated caloric intake
- energy expenditure [1, 2]: enhanced energy expenditure
- glycaemic control [1, 2]: improved glycaemic control
- mass of ingWAT, epiWAT and the liver (diet-induced obese mice; 28-day treatment, compared with control littermates): lower mass
- difference in fat mass between the mid- and post-treatment (diet-induced obese mice; 14 days after last PZ6005 dose): no significant difference
- energy expenditure and oxygen consumption (diet-induced obese mice; Day 8-Day 11 of the treatment, day and night): consumed more energy
- mean percentage change in weight (diet-induced obese mice; day 28, PZ6005 100 μg/animal I.C.V. every other day first 14 days, liraglutide 200 μg/kg/day S.C. 28 days): −13.02±1.15%
